Results published in PubChem BioAssay (NCI).
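Tested at 5 concentrations; 48 h exposure; 96-well plates; endpoints linearly interpolated, else capped at highest concentration. TGI: concentration producing complete growth inhibition.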

Tests used:
Experiment in all cases: inhibition of tumour cell growth, NCI panel, 48 h
[1] = system: CCRF-CEM leukemia
[2] = system: OVCAR-4 ovarian
[3] = system: OVCAR-8 ovarian
[4] = system: SNB-75 CNS
[5] = system: T-47D breast
[6] = system: SNB-19 CNS
[7] = system: MDA-MB-435
[8] = system: CAKI-1 renal
[9] = system: OVCAR-3 ovarian
[10] = system: NCI-H226 lung
[11] = system: ACHN renal
[12] = system: M14 melanoma
[13] = system: SK-MEL-5 melanoma
[14] = system: DU-145 prostate
[15] = system: EKVX NSCLC
[16] = system: HCT-15 colon
[17] = system: KM12 colon
[18] = system: NCI-H522 lung
[19] = system: COLO 205 colon
[20] = system: OVCAR-5 ovarian
[21] = system: BT-549 breast
[22] = system: SW-620 colon
[23] = system: MDA-MB-231 breast
[24] = system: MDA-N
[25] = system: U251 CNS
[26] = system: A549 NSCLC
[27] = system: SF-295 CNS
[28] = system: MOLT-4 leukemia
[29] = system: HS 578T breast
[30] = system: TK-10 renal
[31] = system: IGROV1 ovarian
[32] = system: HCT-116 colon
[33] = system: UO-31 renal
[34] = system: SK-MEL-2 melanoma
[35] = system: HCC-2998 colon
[36] = system: PC-3 prostate
[37] = system: A498 renal
[38] = system: HL-60(TB) leukemia
[39] = system: K-562 leukemia
[40] = system: LOX IMVI melanoma
[41] = system: RPMI-8226 leukemia
[42] = system: MALME-3M melanoma
[43] = system: NCI-H23 lung
[44] = system: 786-0 renal
[45] = system: HT29 colon
[46] = system: UACC-257 melanoma
[47] = system: NCI/ADR-RES ovarian
[48] = system: UACC-62 melanoma
[49] = system: SK-OV-3 ovarian
[50] = system: SF-539 CNS
[51] = system: SF-268 CNS
[52] = system: SK-MEL-28 melanoma
[53] = system: MCF7 breast
[54] = system: SN12C renal
[55] = system: NCI-H460 lung
[56] = system: HOP-62 NSCLC
[57] = system: RXF 393 renal
[58] = system: HOP-92 NSCLC

## CC1=CCCC(C)(O)C2CC(CCC3(C)OC3CC1)C(C)C(=O)O2 (centres undefined)
[1]
  TGI: > 100000 nM
[2]
  TGI: > 100000 nM
[3]
  TGI: > 100000 nM
[4]
  TGI: > 100000 nM
[5]
  TGI: > 100000 nM
[6]
  TGI: > 100000 nM
[7]
  TGI: > 100000 nM
[8]
  TGI: > 100000 nM
[9]
  TGI: > 100000 nM
[10]
  TGI: > 100000 nM
[11]
  TGI: > 100000 nM
[12]
  TGI: > 100000 nM
[13]
  TGI: > 100000 nM
[14]
  TGI: > 100000 nM
[15]
  TGI: > 100000 nM
[16]
  TGI: > 100000 nM
[17]
  TGI: > 100000 nM
[18]
  TGI: > 100000 nM
[19]
  TGI: > 100000 nM
[20]
  TGI: > 100000 nM
[21]
  TGI: > 100000 nM
[22]
  TGI: > 100000 nM
[23]
  TGI: > 100000 nM
[24]
  TGI: > 100000 nM
[25]
  TGI: > 100000 nM
[26]
  TGI: > 100000 nM
[27]
  TGI: > 100000 nM
[28]
  TGI: > 100000 nM
[29]
  TGI: > 100000 nM
[30]
  TGI: > 100000 nM
[31]
  TGI: > 100000 nM
[32]
  TGI: > 100000 nM
[33]
  TGI: > 100000 nM
[34]
  TGI: > 100000 nM
[35]
  TGI: > 100000 nM
[36]
  TGI: > 100000 nM
[37]
  TGI: > 100000 nM
[38]
  TGI: > 100000 nM
[39]
  TGI: > 100000 nM
[40]
  TGI: > 100000 nM
[41]
  TGI: > 100000 nM
[42]
  TGI: > 100000 nM
[43]
  TGI: > 100000 nM
[44]
  TGI: > 100000 nM
[45]
  TGI: > 100000 nM
[46]
  TGI: > 100000 nM
[47]
  TGI: > 100000 nM
[48]
  TGI: > 100000 nM
[49]
  TGI: > 100000 nM
[50]
  TGI: > 100000 nM
[51]
  TGI: > 100000 nM
[52]
  TGI: > 100000 nM
[53]
  TGI: > 100000 nM
[54]
  TGI: > 100000 nM
[55]
  TGI: > 100000 nM

## COc1ccc2nc3cccc([N+](=O)[O-])c3c(NCCN(C)C)c2c1
[2]
  TGI: 271 nM
[3]
  TGI: 251 nM
[4]
  TGI: 335 nM
[5]
  TGI: 408 nM
[6]
  TGI: 829 nM
[7]
  TGI: 208 nM
[8]
  TGI: 746 nM
[9]
  TGI: 312 nM
[10]
  TGI: 456 nM
[11]
  TGI: 357 nM
[12]
  TGI: 218 nM
[13]
  TGI: 219 nM
[14]
  TGI: 60.1 nM
[15]
  TGI: 397 nM
[16]
  TGI: 263 nM
[17]
  TGI: 449 nM
[18]
  TGI: 48.7 nM
[19]
  TGI: 107 nM
[20]
  TGI: 437 nM
[21]
  TGI: 184 nM
[22]
  TGI: 756 nM
[23]
  TGI: 357 nM
[24]
  TGI: 262 nM
[56]
  TGI: 323 nM
[25]
  TGI: 600 nM
[26]
  TGI: 279 nM
[27]
  TGI: 1000 nM
[28]
  TGI: 491 nM
[29]
  TGI: 518 nM
[30]
  TGI: 659 nM
[57]
  TGI: 230 nM
[31]
  TGI: 390 nM
[32]
  TGI: 115 nM
[33]
  TGI: 413 nM
[34]
  TGI: 272 nM
[35]
  TGI: 188 nM
[36]
  TGI: 268 nM
[37]
  TGI: 347 nM
[58]
  TGI: 192 nM
[40]
  TGI: 232 nM
[41]
  TGI: 393 nM
[42]
  TGI: 213 nM
[43]
  TGI: 362 nM
[44]
  TGI: 348 nM
[45]
  TGI: 441 nM
[46]
  TGI: 384 nM
[47]
  TGI: 373 nM
[49]
  TGI: 781 nM
[50]
  TGI: 297 nM
[51]
  TGI: 546 nM
[52]
  TGI: 310 nM
[53]
  TGI: 314 nM
[54]
  TGI: 327 nM
[55]
  TGI: 67.2 nM
